Assay results published in patent US8063108B2, “Method for modulating microbial quorum sensing” (priority 2004, dated 2011).

Molecular target: T1, LasR transcriptional activator (Pseudomonas aeruginosa, UniProt P25084)
T1 construct: expressed in transfected cells; host or cells: Pseudomonas putida F117 carrying plasmid pKRC12 (lasR, PlasB-gfp)
Test: Screen signal of thiocarbamate compounds (Table 1), GFP AHL sensor strain with LasR
Format: cell-based
Source text: A screening system with green fluorescent protein as a reporter gene was adapted in a non-pathogenic species, Pseudomonas putida, closely related to Pseudomonas aeruginosa. A key element involved in the regulation of Pseudomonas aeruginosa, LasR, was engineered into the GFP construct (see FIG. 2), such that expression of GFP is linked to quorum sensing. Pseudomonas putida was then subjected to induction (e.g. by 3oxoC12HsL or 3oxoC10HsL) and/or inhibition by candidate chemical compounds from a commercially available combinatorial library. About 16,000 candidate compounds were individually screened.
Many Gram negative bacteria use quorum sensing, an intercellular signaling network that relies on N-acyl homoserine lactone signal molecules (AHL), to regulate and coordinate behaviors and interactions. Expression of quorum sensing-regulated genes is contingent on a LuxR-type transcriptional regulator and the accumulation of a threshold concentration of the cognate AHL. The experiments in this example relate to screening assays carried out to identify compounds that interfere with virulence gene expression under the control of the LasR transcriptional activator, a member of the LuxR family of transcriptional regulators. The inventors screened a library of approximately 16,000 synthetic compounds for induction and inhibition of quorum sensing in a Pseudomonas putida AHL sensor strain, engineered with the LasR transcriptional activator, which controls virulence gene expression in Pseudomonas aeruginosa. LasR mediated gene expression was monitored by measuring green fluorescent protein (GFP) expression from a transcriptional fusion between GFP and the promoter from lasB, which is under the control of LasR. lasB is a virulence gene that encodes an elastase involved in pathogenesis.
The initial screen utilized 3oxoC10HSL [N-(3-oxo-decanoyl)-L-homoserine lactone] as the inducer of LasR mediated signaling to identify compounds that compete with 3oxoC10HSL for half-maximal activation of GFP expression by the AHL reporter. This strategy enables identification of agonists and antagonists of LasR by pursuing compounds that either reduce or augment the activity of the AHL. The inventors further analyzed the antagonists in competition with 3oxoC12HSL [N-(3-oxo-dodecanoyl)-L-homoserine lactone]. The activities of the agonists were further characterized in the absence of AHL.
To determine the effects of compounds on AHL-mediated quorum sensing, the reporter strain P. putida F117 pKRC12 was grown overnight at 28° C. in LB media, diluted with LB media to achieve an optical density of 0.05 at 600 nm (OD600), and 28 μl aliquots of cells were added to 384-well plates. 16,000 compounds were screened from a subset of the Chembridge DIVERSet, each at a final concentration of 100 nM. Bacterial cells at a final volume of 30 μl were incubated with the compounds for approximately 30 minutes prior to the addition of 3oxoC10HSL, at a final concentration of 100 nM. All of the compounds were dissolved in DMSO. DMSO was included in all controls. A Biomek FX liquid handler was used to dispense the reagents and bacteria into the 384-well plates. The initial screen was performed at room temperature. Fluorescence was measured at regular intervals after 3 hours using the EnVision plate reader (Perkin Elmer, inc.) with an excitation wavelength of 485 nm and emission detection at 510 nm. Compounds that reduced or increased the expression of GFP by a factor of greater than or equal three standard deviations from the mean values for controls containing 3oxoC10HSL were chosen for further analysis. Compounds that increased the expression of GFP by three standard deviations were designated as putative agonists. Compounds that decreased the expression of GFP by three standard deviations were designated as putative antagonists.

T1 sequence (P25084 whole entry): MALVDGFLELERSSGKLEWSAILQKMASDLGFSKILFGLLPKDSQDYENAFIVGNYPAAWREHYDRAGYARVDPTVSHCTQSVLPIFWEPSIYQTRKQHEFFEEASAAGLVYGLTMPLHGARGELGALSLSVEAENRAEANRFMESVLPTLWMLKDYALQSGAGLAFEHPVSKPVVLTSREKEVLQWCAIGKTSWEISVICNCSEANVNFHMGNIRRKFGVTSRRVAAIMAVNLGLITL

Structure (SMILES): NC(=O)SCC(=O)Nc1ccccc1O [Compound 5947920]
- Signal 671/672: 31966
- Signal 673/674: 33599
- Signal 674/875: 35234

Structure (SMILES): COc1ccc(NC(=O)CSC(N)=O)c(OC)c1 [Compound 5950824]
- Signal 671/672: 358647
- Signal 673/674: 332745
- Signal 674/875: 1769017

Structure (SMILES): NC(=O)SCC(=O)Nc1ccccc1Br [Compound 5949674]
- Signal 671/672: 184012
- Signal 673/674: 227644
- Signal 674/875: 1811011

Structure (SMILES): COc1cccc(NC(=O)CSC(N)=O)c1 [Compound 5956868]
- Signal 671/672: 246680
- Signal 673/674: 243693
- Signal 674/875: 1277307

Structure (SMILES): CCOC(=O)c1ccccc1NC(=O)CSC(N)=O [Compound 5952120]
- Signal 671/672: 29681
- Signal 673/674: 31840
- Signal 674/875: 32358

Structure (SMILES): NC(=O)SCC(=O)Nc1cccc(Cl)c1 [Compound 5953997]
- Signal 671/672: 71274
- Signal 673/674: 87420
- Signal 674/875: 218815

Structure (SMILES): Cc1ccc(NC(=O)CSC(N)=O)cc1Cl [Compound 5952472]
- Signal 671/672: 176752
- Signal 673/674: 223255
- Signal 674/875: 652341

Structure (SMILES): NC(=O)SCC(=O)Nc1ccc(Br)cc1 [Compound 5948339]
- Signal 671/672: 99889
- Signal 673/674: 122318
- Signal 674/875: 382242

Structure (SMILES): COc1ccc(NC(=O)CSC(N)=O)cc1 [Compound 5948690]
- Signal 671/672: 580722
- Signal 673/674: 341731
- Signal 674/875: 1742777

Structure (SMILES): COC(=O)c1ccccc1NC(=O)CSC(N)=O [Compound 5951673]
- Signal 671/672: 135505
- Signal 673/674: 176618
- Signal 674/875: 1041625

Structure (SMILES): CC(=O)c1ccc(NC(=O)CSC(N)=O)cc1 [Compound 5952389]
- Signal 671/672: 464145
- Signal 673/674: 594209
- Signal 674/875: 1805803

Structure (SMILES): NC(=O)SCC(=O)Nc1ccc(Cl)c(Cl)c1 [Compound 5949527]
- Signal 671/672: 314238
- Signal 673/674: 171491
- Signal 674/875: 686157

Structure (SMILES): NC(=O)SCC(=O)Nc1ccccc1Cl [Compound 5956488]
- Signal 671/672: 120221
- Signal 673/674: 145117
- Signal 674/875: 867440

Structure (SMILES): NC(=O)SCC(=O)Nc1ccc(I)cc1 [Compound 5955203]
- Signal 671/672: 375590
- Signal 673/674: 386242
- Signal 674/875: 1805793

Structure (SMILES): COC(=O)c1ccc(NC(=O)CSC(N)=O)cc1 [Compound 5952057]
- Signal 671/672: 161090
- Signal 673/674: 186369
- Signal 674/875: 1124336

Structure (SMILES): COc1ccccc1NC(=O)CSC(N)=O [Compound 5947535]
- Signal 671/672: 99128
- Signal 673/674: 169923
- Signal 674/875: 572429

Structure (SMILES): Cc1ccc(Cl)cc1NC(=O)CSC(N)=O [Compound 5948544]
- Signal 671/672: 120140
- Signal 673/674: 98180
- Signal 674/875: 418594

Structure (SMILES): Cc1ccc(NC(=O)CSC(N)=O)c(C)c1 [Compound 5955325]
- Signal 671/672: 120271
- Signal 673/674: 134098
- Signal 674/875: 694077

Structure (SMILES): Cc1cccc(NC(=O)CSC(N)=O)c1 [Compound 5955821]
- Signal 671/672: 266776
- Signal 673/674: 285870
- Signal 674/875: 1575457

Structure (SMILES): Cc1cccc(NC(=O)CSC(N)=O)c1C [Compound 5956611]
- Signal 671/672: 116987
- Signal 673/674: 131695
- Signal 674/875: 703195

Structure (SMILES): NC(=O)SCC(=O)Nc1cccc(F)c1 [Compound 5949713]
- Signal 671/672: 100580
- Signal 673/674: 97648
- Signal 674/875: 265386
